Measured values reported in patent publication US20210369768A1, “METAL DI-AMINO ACID CHELATES OR METAL TRI-AMINO ACID CHELATES” (Balchem Corporation, priority 2020, published 2021).
Peptide text beside a SMILES is read from it.

What was measured:
[1] = tested on: Caco-2 cells; assay: Cellular uptake of magnesium complexes in Caco-2 cells (BioVision colorimetric magnesium uptake assay kit); details: Example 12, FIG. 72
Experimental: (§1) Magnesium uptake colorimetric assay kits were purchased from BioVision (Catalog #385-100). […] HEK-293 (ATCC® CRL-1573TM) cells, Caco-2 (ATCC® HTB-37TM) cells, and Dulbecco's Modified Eagle Medium (ATCC® 30-2002) were purchased from ATCC. Penicillin streptomycin (10,000 U/mL), fetal bovine serum (FBS), and trypsin/EDTA (0.25%) were purchased from Gibco™.
(§2) Caco-2 cells were cultured from Liquid N2 frozen stocks and rapidly thawed to RT using a water bath at 37° C.; cryopreservation media was removed with a micropipette after cells were pelleted via centrifugation for 8-10 minutes at 125 g. Cells were resuspended in 1 mL of room temperature DMEM and cultured in 14 mLs DMEM (total volume of 15 mLs) with a seeding density of 3.6×10^4 cells/cm^2 in a T-75 cm^2 culture flask and left to grow in an incubator at 37° C. and 5% CO2. Cells were sub-cultured at 90% confluency, and sub-culturing occurred a minimum of five times before use in uptake assays. When ready-to-use cultures were at 90% confluency, old DMEM media was pipetted off and 3-4 mLs of trypsin was added—the trypsinized culture flask was placed back in the incubator for 5-10 minutes to detach cells. Once detached, the culture flask was rinsed with 6-8 mLs of fresh DMEM to neutralize the trypsin -cells for uptake assays were counted utilizing a DeNovix CellDrop™. Once counted, cells were pelleted down via centrifugation at 125 g for 8-10 minutes, and the neutralized trypsin-media supernatant was pipetted off. Cells were resuspended in 5 mLs magnesium assay buffer for cellular uptake assay.
(§3) Cellular uptake data was collected at incubation times of 1 hr (required kit incubation time), 4 hrs (the amount of time required for uptake in the GI), and 24 hrs (the amount of time required for a complex to clear the GI).
(§4) Kinetics were evaluated utilizing the slope of the line of uptake of the complex in the Caco-2 cells.

[2] = Stability of the complex in solution via 1H NMR; format: physicochemical; details: 1H NMR in D2O
Excerpt: At 72 hrs, an observable upfield shift occurs, which may be due to isomer formation. There is no observable change in proton integration. NMR taken in D2O.

[3] = tested on: Caco-2 cells
Experimental: as §1, §2, §3, §4

Row | cellular uptake at 24 hrs [3] | Compound | cellular uptake in CaCo-2 cell line relative to other magnesium complexes [1] | stability in solution [2]
1 | – | magnesium diglycine [MgG2] | relatively linear uptake in the CaCo-2 cell line similar to that of both magnesium chloride (MgCl2) and magnesium bisglycinate (MgBG) | –
2 | – | NCC(=O)[O-].NCC(=O)[O-].[Mg+2] [MgBG, magnesium bisglycinate, reference compound] | significantly less cellular uptake than Mg(G3) | –
3 | cell saturation | NCC(=O)NCC(=O)NCC(=O)[O-].[Mg+2].[OH-] [Mg(G3), magnesium 2-[[2-[(2-aminoacetyl)amino]acetyl]amino]acetic acid chelate] (H-Gly-Gly-Gly-OH) | – | considerable stability for periods up to 72 hrs
